Assay results as given in PubChem BioAssay AID330 (DTP/NCI, 2004).
Where “and” joins values, the source holds several entries; their conditions need not be identical. Equal entries are not always repeated. Toxic doses and inconclusive results are not listed. How the source made its calls: active means survival T/C of 150% or more; inactive means T/C below 125% in these data.

Test system: P388 leukemia ip, CD2F1 mice, survival T/C
Assay: NCI In Vivo Anticancer Drug Screen. Data for tumor model P388 Leukemia (intraperitoneal) in CD2F1 (CDF1) mice
Conditions: endpoint: median survival time, higher = longer survival
Summary of the method: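 Mice carrying the transplanted tumor received test compound or vehicle. Survival was recorded in each group, and the value is the treated-group measurement divided by that of the vehicle-treated control group.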

[1] = dose: 50.0 mg/kg/injection, schedule: Q01DX009 (ip), vehicle: Klucel (hydroxypropylcellulose) (HPC)
[2] = dose: 100.0 mg/kg/injection, schedule: Q01DX009 (ip), vehicle: Klucel (hydroxypropylcellulose) (HPC)
[3] = dose: 200.0 mg/kg/injection, schedule: Q01DX009 (ip), vehicle: Klucel (hydroxypropylcellulose) (HPC)
[4] = dose: 60.0 mg/kg/injection, schedule: Q01DX005 (ip), vehicle: saline with Tween-80
[5] = dose: 120.0 mg/kg/injection, schedule: Q01DX005 (ip), vehicle: saline with Tween-80
[6] = dose: 6.25 mg/kg/injection, schedule: Q01DX009 (ip), vehicle: saline with Tween-80
[7] = dose: 12.5 mg/kg/injection, schedule: Q01DX009 (ip), vehicle: saline with Tween-80
[8] = dose: 25.0 mg/kg/injection, schedule: Q01DX009 (ip), vehicle: saline with Tween-80
[9] = dose: 50.0 mg/kg/injection, schedule: Q01DX009 (ip), vehicle: saline with Tween-80
[10] = dose: 100.0 mg/kg/injection, schedule: Q01DX009 (ip), vehicle: saline with Tween-80
[11] = dose: 200.0 mg/kg/injection, schedule: Q01DX009 (ip), vehicle: saline with Tween-80
[12] = dose: 6.25 mg/kg/injection, schedule: Q01DX009 (ip), vehicle: saline
[13] = dose: 12.5 mg/kg/injection, schedule: Q01DX009 (ip), vehicle: saline
[14] = dose: 50.0 mg/kg/injection, schedule: Q01DX009 (ip), vehicle: saline
[15] = dose: 100.0 mg/kg/injection, schedule: Q01DX009 (ip), vehicle: saline
[16] = dose: 100.0 mg/kg/injection, schedule: Q04DX003 (ip), vehicle: saline
[17] = dose: 240.0 mg/kg/injection, schedule: Q01DX005 (ip), vehicle: saline with Tween-80

Measured: T/C

CCCCCCCC/C=C\CCCCCCCC(=O)OCC(=O)OC
inactive: [1] 98 % of control | [2] 104 % of control | [3] 110 % of control

CCOC(=O)CC1NCCc2ccccc21 (stereo not given)
inactive: dose: 25.0 mg/kg/injection, schedule: Q01DX005 (ip), vehicle: saline + alcohol 103 % of control | dose: 50.0 mg/kg/injection, schedule: Q01DX005 (ip), vehicle: saline + alcohol 103 % of control | dose: 100.0 mg/kg/injection, schedule: Q01DX005 (ip), vehicle: saline + alcohol 103 % of control | dose: 200.0 mg/kg/injection, schedule: Q01DX005 (ip), vehicle: saline + alcohol 101 % of control

CCC(=N)C(c1ccccc1)(c1ccccc1)C(C)CN(C)C (stereo not given)
inactive: dose: 15.0 mg/kg/injection, schedule: Q01DX005 (ip), vehicle: saline 101 % of control | dose: 30.0 mg/kg/injection, schedule: Q01DX005 (ip), vehicle: saline 101 % of control | dose: 60.0 mg/kg/injection, schedule: Q01DX005 (ip), vehicle: saline 100 % of control

Cc1cc(N=[N+]=[N-])c2ccc(F)cc2n1
inactive: [4] 94 % of control | [5] 92 % of control

COc1cc(/C=N/OC(=O)Nc2ccccc2)cc(OC)c1OC
inactive: [6] 96 % of control | [7] 91 % of control | [8] 91 % of control

CCCCCC/C=C/C1CC(=O)OC1=O (stereo not given)
inactive: dose: 100.0 mg/kg/injection, schedule: Q04DX003 (ip), vehicle: saline with Tween-80 95 % of control

CC(=O)C1=C(O)/C(=C\C=C\c2ccccc2)OC1=O
inactive: [1] 111 % of control | [2] 104 % of control | [3] 118 % of control

COc1ccc(CCN2CCC(Nc3nc4ccccc4n3Cc3ccc(F)cc3)CC2)cc1
inactive: dose: 50.0 mg/kg/injection, schedule: Q01DX005 (ip), vehicle: saline with Tween-80 92 % of control | dose: 100.0 mg/kg/injection, schedule: Q01DX005 (ip), vehicle: saline with Tween-80 95 % of control

COc1cccc(C(=O)CC[N+](C)(C)C)c1
inactive: dose: 3.13 mg/kg/injection, schedule: Q01DX009 (ip), vehicle: saline with Tween-80 100 % of control | [6] 102 % of control | [7] 103 % of control

CN1C(=O)N/C(=C2/CCOC2=O)C1=O
inactive: [9] 106 % of control | [10] 88 % of control | [11] 98 % of control

Cc1cc2nc3c(=O)[nH]c(=O)nc-3n(CCOC(=O)CCC(=O)O)c2cc1C
inactive: dose: 100.0 mg/kg/injection, schedule: Q04DX003 (ip), vehicle: saline sonified 104 % of control | dose: 200.0 mg/kg/injection, schedule: Q04DX003 (ip), vehicle: saline sonified 114 % of control

Cc1ccc(N=C(SSC(Cl)(Cl)Cl)SSC(Cl)(Cl)Cl)cc1
inactive: [6] 91 % of control | [7] 99 % of control | [8] 100 % of control | dose: 50.0 mg/kg/injection, schedule: Q01DX009 (ip), vehicle: saline + alcohol 104 % of control | [9] 101 % of control

CCC[CH2][Sn]([CH2]CCC)([CH2]CCC)[CH2]CC[N+](C)(CCO)CCO.CS(=O)(=O)[O-]
inactive: dose: 3.12 mg/kg/injection, schedule: Q01DX009 (ip), vehicle: saline 87 % of control | [12] 91 % of control | [13] 97 % of control | [14] 86 % of control | [15] 95 % of control | dose: 200.0 mg/kg/injection, schedule: Q01DX009 (ip), vehicle: saline 98 % of control

CC[N](CC)[Ge]([CH2]C)[CH2]C.C[CH2][Ge]([CH2]C)[CH2]C
inactive: [12] 98 % of control and 109 % of control | [13] 98 % of control and 109 % of control | dose: 25.0 mg/kg/injection, schedule: Q01DX009 (ip), vehicle: saline 109 % of control and 114 % of control | [14] 121 % of control | [15] 118 % of control

OCCCN(CCCO)CCN(CCCO)CCCO
inactive: [16] 97 % of control | dose: 200.0 mg/kg/injection, schedule: Q04DX003 (ip), vehicle: saline 97 % of control | dose: 400.0 mg/kg/injection, schedule: Q04DX003 (ip), vehicle: saline 87 % of control

Nc1[nH]nc(Nc2cccc(Cl)c2Cl)c1C(=O)c1cccs1
inactive: [7] 101 % of control | [8] 99 % of control | [9] 99 % of control and 100 % of control | [10] 96 % of control | [11] 98 % of control

CCN(CC)CCNC(=O)c1nn(-c2ccccc2)c2c1CCc1ccccc1-2
inactive: dose: 25.0 mg/kg/injection, schedule: Q04DX003 (ip), vehicle: saline 100 % of control | dose: 50.0 mg/kg/injection, schedule: Q04DX003 (ip), vehicle: saline 101 % of control | [16] 102 % of control and 107 % of control

CCOC(=O)c1c(C)c2c(n1C)CCc1sc(N)nc1-2
inactive: dose: 50.0 mg/kg/injection, schedule: Q04DX003 (ip), vehicle: Klucel (hydroxypropylcellulose) (HPC) 100 % of control | dose: 100.0 mg/kg/injection, schedule: Q04DX003 (ip), vehicle: Klucel (hydroxypropylcellulose) (HPC) 101 % of control | dose: 200.0 mg/kg/injection, schedule: Q04DX003 (ip), vehicle: Klucel (hydroxypropylcellulose) (HPC) 94 % of control

Cc1cc(C)c2c(c1)sc1nncn12
inactive: [1] 118 % of control | [2] 94 % of control | [3] 92 % of control

CC1OC2CC(=O)OC2C2=C1C(=O)c1cc(-c3cc(O)c4c(c3)C(=O)C3=C(C4=O)C4OC(=O)CC4OC3C)cc(O)c1C2=O (stereo not given)
inactive: dose: 0.95 mg/kg/injection, schedule: Q01DX005 (ip), vehicle: DMSO 98 % of control | dose: 1.9 mg/kg/injection, schedule: Q01DX005 (ip), vehicle: DMSO 107 % of control | dose: 3.8 mg/kg/injection, schedule: Q01DX005 (ip), vehicle: DMSO 99 % of control

CCCCOC(=O)C1CSSCC(NC(C)=O)C(=O)N1 (stereo not given)
inactive: dose: 17.5 mg/kg/injection, schedule: Q01DX005 (ip), vehicle: Klucel (hydroxypropylcellulose) (HPC) 101 % of control | dose: 35.0 mg/kg/injection, schedule: Q01DX005 (ip), vehicle: Klucel (hydroxypropylcellulose) (HPC) 102 % of control | dose: 70.0 mg/kg/injection, schedule: Q01DX005 (ip), vehicle: Klucel (hydroxypropylcellulose) (HPC) 108 % of control

Cc1c2ccn(CCCCCCCCn3ccc4c(C)c5nc6ccccc6c5c(C)c4c3)cc2c(C)c2c1nc1ccccc12
inactive: dose: 3.13 mg/kg/injection, schedule: Q04DX003 (ip), vehicle: distilled water + Tween-80 118 % of control and 121 % of control | dose: 25.0 mg/kg/injection, schedule: Q04DX003 (ip), vehicle: distilled water + Tween-80 123 % of control

Cc1ccc(S(=O)(=O)Nc2ccccc2OCCN(CCOc2ccccc2NS(=O)(=O)c2ccc(C)cc2)S(=O)(=O)c2ccc(C)cc2)cc1
inactive: [9] 96 % of control | [10] 99 % of control | [11] 93 % of control

Cn1cc(/C=C/C(=O)c2ccccc2[N+](=O)[O-])c2ccccc21
inactive: [4] 95 % of control | [5] 89 % of control | [17] 89 % of control

COc1cc2c[n+](C)c3c4cc(OC)c(OCc5ccccc5)cc4c(OCc4ccccc4)cc3c2cc1OC
inactive: dose: 3.12 mg/kg/injection, schedule: Q01DX005 (ip), vehicle: Klucel (hydroxypropylcellulose) (HPC) 100 % of control | dose: 6.25 mg/kg/injection, schedule: Q01DX005 (ip), vehicle: Klucel (hydroxypropylcellulose) (HPC) 100 % of control | dose: 12.5 mg/kg/injection, schedule: Q01DX005 (ip), vehicle: Klucel (hydroxypropylcellulose) (HPC) 98 % of control

CCN(/C=N/N(C)S(C)(=O)=O)c1ccccc1
inactive: dose: 50.0 mg/kg/injection, schedule: Q01DX005 (ip), vehicle: Klucel (hydroxypropylcellulose) (HPC) 104 % of control | dose: 100.0 mg/kg/injection, schedule: Q01DX005 (ip), vehicle: Klucel (hydroxypropylcellulose) (HPC) 116 % of control | dose: 200.0 mg/kg/injection, schedule: Q01DX005 (ip), vehicle: Klucel (hydroxypropylcellulose) (HPC) 118 % of control

COc1c(C(C)C)cc2c(c1OC)C13CCCC(C)(C)C1C(OC3=O)C2NC(=O)CN1CCN(CCO)CC1 (stereo not given)
inactive: dose: 25.0 mg/kg/injection, schedule: Q01DX009 (ip), vehicle: Klucel (hydroxypropylcellulose) (HPC) 106 % of control | [1] 97 % of control | [2] 88 % of control

CC(=O)Oc1c(C)c(OC(C)=O)c2[nH]c(Cl)c(C=O)c2c1OC(C)=O
inactive: dose: 100.0 mg/kg/injection, schedule: Q01DX001 (ip), vehicle: Klucel (hydroxypropylcellulose) (HPC) 108 % of control | dose: 200.0 mg/kg/injection, schedule: Q01DX001 (ip), vehicle: Klucel (hydroxypropylcellulose) (HPC) 102 % of control

CCOC(=O)c1cnc2c(C(F)(F)F)cccc2c1N=[N+]=[N-]
inactive: [4] 99 % of control | [5] 96 % of control | [17] 95 % of control
